Results taken from PMC6465774 (Frontiers in Pharmacology, 2019).
Where a name gives a salt, the structure may show the parent alone.

How the values were obtained:
[1] = tested on: gastric emptying in weight-matched control rats; settings: 0.1 mg/kg s.c. 30 min before methylcellulose, weight-matched control animals, n = 7
Description: After 20 min the rats were sacrificed and the stomachs were removed after clamping the pylorus and cardia. […] Gastric emptying (%) was calculated as follows: [1 – (absorbance of sample / maximal absorbance)] × 100. Maximal absorbance was measured by processing the test meal alone, as described above.
In a separate experiment, weight match animals were treated either with saline, or with clonidine (0.1 mg/kg), an alpha2 adrenoceptor agonist and well-known inhibitor of gastric emptying, subcutaneously 30 min before the methylcellulose administration.

[2] = tested on: STZ treated neuropathic rats; experiment: Antagonist effect of co-administered NAL-M on the antiallodynic effect of s.c. opioids (DPA); format: in vivo, rat
[3] = target: T1, MOR (Rattus norvegicus, UniProt P33535); experiment: [3H]DAMGO saturation binding in dorsal spinal cord membranes
T1 construct: incubating 50–100 μg of membrane protein of lumbar dorsal horn with 0.1- 4 nM; from tissue; host or cells: rat lumbar (L3-5) dorsal spinal cord / dorsal horn membranes, diabetic and control rats

[4] = tested on: STZ treated diabetic and weight matched non-diabetic rats (paw pressure withdrawal threshold); settings: rat, in vivo
[5] = tested on: STZ treated diabetic rats with allodynia; settings: rat, in vivo
[6] = tested on: STZ treated animals; design: method as in Yamamoto et al., 2009; settings: doses up to 10 mg/kg (approximately 31 μmol/kg), 7 weeks following STZ treatment; ref Yamamoto et al., 2009; cited from earlier work
[7] = tested on: respiratory functions; settings: dose of 253 nmol/kg; ref our previous work; cited from earlier work

T1 sequence (P33535 whole entry): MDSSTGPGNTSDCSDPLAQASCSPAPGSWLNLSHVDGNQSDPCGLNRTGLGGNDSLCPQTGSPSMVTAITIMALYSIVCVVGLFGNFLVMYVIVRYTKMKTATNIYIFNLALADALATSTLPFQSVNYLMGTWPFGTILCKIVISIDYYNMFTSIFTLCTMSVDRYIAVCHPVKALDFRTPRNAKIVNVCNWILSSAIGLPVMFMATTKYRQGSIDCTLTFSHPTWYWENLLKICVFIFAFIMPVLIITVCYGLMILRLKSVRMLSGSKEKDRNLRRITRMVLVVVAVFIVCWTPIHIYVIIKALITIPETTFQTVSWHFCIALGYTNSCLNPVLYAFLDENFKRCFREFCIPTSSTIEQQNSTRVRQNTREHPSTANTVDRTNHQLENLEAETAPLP

Row | SMILES | ED30 (effective dose producing 30% effect), diabetic animals ([4]; sc) [nmol/kg] | ED30 (effective dose producing 30% effect), non-diabetic animals ([4]; sc) [nmol/kg] | dose inducing significant antinociceptive action in naïve (weight matched) rats ([4]; sc) [nmol/kg] | time of peak antinociceptive effect ([4]; sc) [min] | antiallodynic effect at 12th week of diabetes at the lowest antiallodynic dose [5] | lowest dose that significantly attenuated the allodynia (lowest antiallodynic dose) ([5]; sc) [nmol/kg] | other results
1 | Clc1cccc(Cl)c1N=C1NCCN1 [clonidine, clonidine-hydrochloride] |  |  |  |  |  |  | gastric emptying [1]: 55 ± 2%
2 | C=CC[N+]1(C)CC[C@]23c4c5ccc(O)c4O[C@H]2C(=O)CC[C@@]3(O)[C@H]1C5 (some centres unmarked) [NAL-M, Naloxone methiodide] |  |  |  |  |  |  | effect of co-administered NAL-M on the antiallodynic action of 14-O-MeM6SU and morphine ([2]; NAL-M 10.6 μmol/kg s.c., co-administered with s.c. 14-O-MeM6SU or morphine): failed to alter the antiallodynic action; effect of NAL-M alone ([2]; NAL-M alone, n = 5, data not shown): no effect
3 | C[C@@H](NC(=O)[C@@H](N)Cc1ccc(O)cc1)C(=O)NCC(=O)N(C)[C@@H](Cc1ccccc1)C(=O)NCCO [DAMGO, Tyr-D-Ala-Gly-(NMe)Phe-Gly-ol] |  |  |  |  |  |  | Bmax of [3H]DAMGO binding, controls ([3]; dorsal horn of control rats): 23.55 ± 4.36 fmol/mg; Bmax of [3H]DAMGO binding, diabetic rats ([3]; dorsal horn of diabetic rats): 13.11 ± 1.85 fmol/mg
4 | CN1CC[C@]23c4c5ccc(O)c4O[C@H]2[C@@H](O)C=C[C@H]3[C@H]1C5 [Morphine, morphine hydrochloride] | 20692 | 6589 | ≥ 2500 | 30 | produced antiallodynic effects | 40000 | ED30diabetic/ED30non-diabetic [4]: 7; effectiveness of morphine in doses up to 10 mg/kg [6]: ineffectiveness
5 | CO[C@@]12C=C[C@H](OS(=O)(=O)O)[C@@H]3Oc4c(O)ccc5c4[C@@]31CCN(C)[C@@H]2C5 [14-O-MeM6SU, 14-O-methylmorphine-6-O-sulfate] | 434 | 335 | 506 | 60 | produced antiallodynic effects | 253 | times higher potency than morphine in diabetic conditions based on ED30 values [4]: 48 times; antinociceptive action in naïve rats at 253 nmol/kg ([4]; sc): failed to show any significant antinociceptive action; antiallodynic action in diabetic rats, all tested doses ([5]; sc): significantly ameliorated the allodynia; respiratory depression [7]: no respiratory depression
